This passage reports TGI results from PubChem BioAssay (NCI).

SMILES strings stand for the structures.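 These data come from cells grown in 96-well plates and exposed to compound for 48 hours at five concentrations. TGI marks complete inhibition of growth.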

Holding throughout (assay): NCI-60 cell line screen, 48 h
The test system of assay [1] is HOP-92 NSCLC.
The test system of assay [2] is MOLT-4 leukemia.
Assay [3] deals with OVCAR-4 ovarian.
The test system of assay [4] is MDA-N.
Assay [5] concerns COLO 205 colon.
Assay [6] deals with IGROV1 ovarian.
The test system of assay [7] is M14 melanoma.
Assay [8] concerns CCRF-CEM leukemia.
Assay [9] deals with OVCAR-5 ovarian.
For assay [10], the system named is T-47D breast.
Assay [11] concerns HOP-62 NSCLC.
For assay [12], the system named is UACC-257 melanoma.
Assay [13] relates to CAKI-1 renal.
Assay [14] has as its system MDA-MB-435.
The test system of assay [15] is U251 CNS.
The test system of assay [16] is NCI-H522 lung.
The subject of assay [17] is BT-549 breast.
Assay [18] relates to TK-10 renal.
The test system of assay [19] is RPMI-8226 leukemia.

Regarding `CC(C)CCNC(=O)C(CC(C)C)NC(=O)[C@H]1O[C@@H]1C(=O)O` (stereo partly specified), the TGI in assay [1], in [2], in assay [3], in assay [4], in [5] and in [6] was > 100 µM in each case. Moreover, the TGI in [7], in assay [8], in assay [9], in assay [10], in [11] and in [12] was > 100 µM throughout. Further, the TGI in assay [13], in [14], in assay [15], in assay [16] and in [17] was > 100 µM in each case.

On to `O=S1(=O)c2ccccc2C(Nc2ccccc2)N1c1ccccc1` (stereo unspecified), for which the TGI in assay [1], in assay [2], in [3], in assay [4], in assay [18] and in [6] was > 100 µM throughout. For the same compound, the TGI in [19] was > 100 µM; in [8], > 100 µM; in [9], > 100 µM; in assay [10], 80 µM; in assay [11], > 100 µM; in assay [12], > 100 µM. For the same compound, the TGI is > 100 µM in assay [13]; > 100 µM in [14]; > 100 µM in [15]; 67.9 µM in assay [16]; > 100 µM in [17].

As to `COc1ccc(NC(C)=O)cc1N1C(=O)/C(=C\c2ccccc2)SC1c1cc(OC)c(OC)c(OC)c1` (stereo unspecified), the TGI in [1], in [2], in assay [4], in [5], in [18] and in [6] was > 100 µM each time. For the same compound, the TGI in [7], in assay [19], in [8], in assay [10], in [11] and in assay [12] was > 100 µM each time. The TGI was > 100 µM in [13]; > 100 µM in [14]; > 100 µM in [15]; 35.4 µM in assay [16]; > 100 µM in assay [17].

For `C[Si](C)(C)c1ccc(-c2c3ccc(-c4cc(Br)cc(Br)c4)nc3nc3nc(-c4cc(Br)cc(Br)c4)ccc23)cc1`, the TGI in [1], in assay [3], in [4], in assay [5], in assay [18] and in assay [7] was > 100 µM throughout. The TGI in assay [19], in assay [9], in assay [10], in assay [11], in assay [12] and in assay [13] was > 100 µM in each case. Further, the TGI in assay [14], in assay [15], in assay [16] and in assay [17] was > 100 µM throughout.

As for `Cn1c(=O)c2nc3c(=O)n(C)c(=O)n(CC(N)=O)c3nc2n(C)c1=O`, the TGI in assay [1], in [3], in assay [4], in assay [5], in [18] and in assay [6] was > 100 µM throughout. Also, the TGI in [7], in assay [19], in [8], in assay [9], in [10] and in assay [11] was > 100 µM throughout. Also, the TGI in [12], in assay [13], in assay [14], in assay [15], in assay [16] and in [17] was > 100 µM in each case.

Take `CCOC(=O)C1(C#N)C(=O)c2cc[n+](CC[n+]3ccc4c(c3)C(=O)C(C#N)(C(=O)OCC)C4=O)cc2C1=O` (stereo unspecified): the TGI in assay [1], in assay [2], in assay [3], in assay [4], in assay [6] and in assay [7] was > 100 µM in each case. Further, the TGI in assay [19], in assay [8], in assay [9], in assay [10], in assay [12] and in assay [13] was > 100 µM each time. The TGI in assay [14], in assay [15], in [16] and in assay [17] was > 100 µM in each case.

Turning to `CC(O)CN1c2ccccc2Sc2ccccc21` (stereo unspecified), the TGI in assay [1], in assay [2], in assay [3], in assay [4], in [5] and in [18] was > 100 µM throughout. In addition, the TGI in assay [6], in assay [7], in assay [8], in assay [9], in assay [10] and in [11] was > 100 µM in each case. Moreover, the TGI in assay [12], in assay [13], in assay [14], in assay [15], in assay [16] and in [17] was > 100 µM throughout.

Consider `O=c1oc2ccccc2c(O)c1C(c1cnc2ccccc2c1)c1c(O)c2ccccc2oc1=O`, for which the TGI is 58.6 µM in assay [1]; 97.7 µM in assay [2]; > 100 µM in [3]; 69.5 µM in [4]; > 100 µM in assay [5]; > 100 µM in assay [18]. Besides, the TGI in assay [6], in assay [19], in assay [8], in assay [10], in [11] and in assay [12] was > 100 µM throughout. Further, the TGI in assay [13] is > 100 µM; in assay [14], > 100 µM; in assay [15] it was > 100 µM; in assay [16], > 100 µM; in assay [17], 68 µM.
